Measurements taken from publication PMC9405524, “Pre‐steady‐state kinetics and solvent isotope effects support the “billiard‐type” transport mechanism in Na ^+‐translocating pyrophosphatase” (Protein Science : A Publication of the Protein Society, 2022).

Biological target: T1, Tm‐mPPase (Thermotoga maritima membrane pyrophosphatase) (Thermotoga maritima, UniProt Q9S5X0)
T1 construct: gene hppA; recombinant in E. coli C41(DE3), assayed in inverted membrane vesicles; homodimer, subunit mass 77 kDa
T1 sequence (Q9S5X0 1-726): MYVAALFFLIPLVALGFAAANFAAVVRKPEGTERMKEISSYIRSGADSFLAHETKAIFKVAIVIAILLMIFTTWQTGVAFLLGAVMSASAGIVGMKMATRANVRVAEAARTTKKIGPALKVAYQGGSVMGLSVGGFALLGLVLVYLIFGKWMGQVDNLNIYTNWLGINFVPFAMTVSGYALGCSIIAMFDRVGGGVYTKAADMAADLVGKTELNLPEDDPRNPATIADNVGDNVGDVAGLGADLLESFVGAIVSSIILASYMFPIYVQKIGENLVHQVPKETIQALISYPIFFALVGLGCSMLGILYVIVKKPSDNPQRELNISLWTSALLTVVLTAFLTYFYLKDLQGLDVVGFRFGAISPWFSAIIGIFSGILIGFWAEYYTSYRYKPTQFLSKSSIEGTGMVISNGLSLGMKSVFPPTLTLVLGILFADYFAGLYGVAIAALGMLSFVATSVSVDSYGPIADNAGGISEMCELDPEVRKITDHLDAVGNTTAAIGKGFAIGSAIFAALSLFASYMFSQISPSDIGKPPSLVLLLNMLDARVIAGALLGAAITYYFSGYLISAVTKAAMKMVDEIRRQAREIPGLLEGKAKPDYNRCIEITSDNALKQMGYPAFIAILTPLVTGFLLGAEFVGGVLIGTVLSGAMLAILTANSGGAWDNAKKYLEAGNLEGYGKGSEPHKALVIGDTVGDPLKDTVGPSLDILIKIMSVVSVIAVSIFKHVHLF
Assay: inhibition of PPi hydrolysis, active-site titration in inverted membrane vesicles, Pi analyzer
Format: biochemical
Details: 25°C, pH 7.2, 5 mM MgCl2, 100 mM NaCl, no K+, 8 μM PPi; competitive; tight-binding fit; apparent, not corrected for substrate; read-out: K i ^app

## NC(P(=O)(O)O)P(=O)(O)O [AMDP]
  Ki: 5 ± 2 nM
